Patent US11766416B2, “Compositions of β-aminoisobutyric acid and methods for use thereof” (Nanjing Nutrabuilding Bio-tech Co., Ltd., priority 2020, dated 2023)

How the values were obtained:
Assay type in all cases: in vivo, C57BL/6 male mice
[1] = Muscular (soleus) and hepatic glycogen content at end of study; details: HFD-fed obese mice, 150 mg/kg/day oral, relative to same HFD, with or without exercise, without L-BAIBA
Procedure: (§1) 36 C57BL/6 male mice aged about 8 weeks, each having a body mass of approximately 21 g, were randomly assigned to six study groups (GA1, GA2, GB1, GB2, GB3, and GB4) of six mice each. Each animal's body weight is measured by a weight scale and recorded.
(§2) The total experimental time is 16 weeks, divided into two periods: an eight-week induction period and an eight-week treatment period.
(§3) Each study group consisted of 6 animals, and treatment details of the individual study groups are given below: • Group A1 (GA1): Normal mice, maintained on a normal diet (ND) for 8 weeks, receiving neither exercise nor L-BAIBA treatment. • Group A2 (GA2): Normal mice, maintained on a normal diet (ND) for 8 weeks, receiving only L-BAIBA treatment and no exercise. • Group B1 (GB1): Obese mice, maintained on a high-fat diet (HFD) for 8 weeks, receiving neither exercise nor L-BAIBA treatment. • Group B2 (GB2): Obese mice, maintained on HFD for 8 weeks, receiving only exercise and no L-BAIBA treatment. • Group B3 (GB3): Obese mice, maintained on HFD for 8 weeks, receiving only L-BAIBA treatment and no exercise. • Group B4 (GB4): Obese mice, maintained on HFD for 8 weeks, receiving both L-BAIBA treatment and exercise.
Animals receiving L-BAIBA received, via oral administration, 150 mg/kg body weight of L-BAIBA, dissolved in 10 mL/kg body weight of ultrapure water, per day. […]

[2] = Weekly blood glucose level (tail vein, glucometer)
Procedure: as §1
(§4) The total experimental time is 16 weeks, divided into two periods: an eight-week induction period and an eight-week treatment period. […]
(§5) Throughout the study described in Example 1, glucose levels in each mouse's blood were measured weekly (week 9-16) on the starting day of every week, before the day's exercise and L-BAIBA dosing activities. […] Blood glucose levels were monitored pre-dose and at 15, 30, 60 and 120 minutes after administration of the glucose solution. […] The area under the curve (AUC) was calculated and expressed as percentage values.

[3] = Blood metabolism-related biomarkers (TG, TCHO, LDL, VLDL) at end of study; details: HFD-fed obese mice, 150 mg/kg/day oral, relative to same HFD, with or without exercise, without L-BAIBA
Procedure: as §1, §2, §3
Animals receiving L-BAIBA received, via oral administration, 150 mg/kg body weight of L-BAIBA, dissolved in 10 mL/kg body weight of ultrapure water, per day. Animals not receiving L-BAIBA were administered 10 mL/kg body weight of ultrapure water per day. All animals were maintained in a pathogen-free condition under a strict 12-hour alternate light/dark cycle with 12-15 cycles/hour of air exchange. All animals were provided with access to their respective feeds and water ad libitum. All animals were housed under controlled laboratory conditions of temperature and humidity at 23±2° C. and 50±10% RH.
At the end of the study described in Example 1, blood was collected from all test groups and various clinical parameters/biomarkers related to metabolism were determined: triglyceride (TG), total cholesterol (TCHO), low-density lipoprotein (LDL) and very low-density lipoprotein (VLDL).

[4] = Body weight of high-fat diet obese mice, measured weekly; details: 150 mg/kg/day oral
Procedure: as §1, §2
as §3, with “and exercise. […]” for “and exercise.”
Throughout the study period, each mouse's body weight was measured weekly by a calibrated electronic digital weighing balance Sartorious BSA32025 (Sartorious AG, Göttingen, Germany). […]

[5] = Oral glucose tolerance test (OGTT) on day 113; details: HFD-fed obese mice, 150 mg/kg/day oral, day 113, glucose 2 g/kg oral; relative to same HFD, with or without exercise, without L-BAIBA; FIGS. 6A-7
Procedure: as §1, §4, §5

[6] = Serum insulin and leptin by ELISA (insulin and leptin resistance); details: HFD-fed obese mice, 150 mg/kg/day oral, end of study, relative to same HFD, with or without exercise, without L-BAIBA
Procedure: as §1, §2
as §3, with “and exercise. […]” for “and exercise.”
At the end of the study described in Example 1, serum levels of insulin and leptin were quantified in all treatment groups by standard ELISA methods. […]

SMILES: C[C@@H](CN)C(=O)O [L-BAIBA, L-β-aminoisobutyric acid]
- hepatic glycogen content ([1]; liver main lobe, FIG. 3A): higher
- muscular glycogen content ([1]; soleus muscle, FIG. 3B): higher
- blood glucose level of obese mice over the experimental period ([2]; HFD obese mice, 150 mg/kg/day oral, weeks 9-16, compared with normal mice (GA1)): stable level, close to the level of normal mice (GA1)
- blood glucose level ([2]; mice receiving 150 mg/kg/day oral, weekly weeks 9-16, GB3 and GB4 relative to GB1 and GB2, FIGS. 5A, 5B): greater reduction in blood glucose level
- blood triglyceride (TG) ([3]; FIG. 2A): lower levels
- blood total cholesterol (TCHO) ([3]; FIG. 2B): lower levels
- blood low-density lipoprotein (LDL) ([3]; FIG. 2C): lower levels
- blood very low-density lipoprotein (VLDL) ([3]; FIG. 2D): lower levels
- body weight, GB3 relative to GB1 and GB2 ([4]; HFD obese mice, L-BAIBA only, no exercise (GB3), vs untreated (GB1) and exercise only (GB2), FIG. 1): reduced body weight
- body weight ([4]; HFD-fed obese mice, 8-week treatment, with or without exercise, relative to same HFD without L-BAIBA): greater reduction in body weight
- glucose tolerance (OGTT) [5]: better glucose tolerance
- insulin resistance (serum insulin) ([6]; FIG. 4A): improved
- leptin resistance (serum leptin) ([6]; FIG. 4B): improved leptin resistance
